Results on twelve compounds are retold here after ChEMBL document CHEMBL1152465, “Comparative evaluation of the inhibitory activities of a series of pyrimidinedione congeners that inhibit human immunodeficiency virus types 1 and 2” (Antimicrob Agents Chemother, 2008).

pEC50, pIC50: −log10 of the molar value. Active and inactive are the calls of the source.

Series [1] relates to Human immunodeficiency virus 2. Description: Antiviral activity against HIV2 ROD infected in human CEM-SS cells assessed as inhibition of virus-induced cytopathic effect by XTT assay. The format is functional, organism-based, ISOLATE ROD. The note with it: for pEC50: Human immunodeficiency virus 2, ISOLATE ROD, CEM-SS, read-out: EC50. For orientation: Protection from cytopathic effect is a common read-out in antiviral testing.

Series [2] concerns the target Human immunodeficiency virus type 1 reverse transcriptase (Human immunodeficiency virus 1, UniProt Q72547). Description: Inhibition of wild type HIV1 reverse transcriptase assessed as 32P-labeled GMP incorporation into nascent DNA strand.
Series [3] deals with Human immunodeficiency virus 2. Description: Antiviral activity against HIV2 assessed as inhibition of viral replication treated at time points after viral entry into host cells. The format is functional, organism-based.
A short description of series [4]: Cytotoxicity against human CEM-SS cells by XTT assay. The note with it: read-out: TC50 (the source's name). The format is cell-based.
Series [5] can be described thus: Therapeutic index, ratio of TC50 human HeLa cells expressing CD4-LTR to EC50 for HIV1 entry inhibition in human HeLa cells expressing CD4-LTR. It counts as cell-based. The settings on record: read-out: TI.
Series [6] concerns the target Human immunodeficiency virus type 1 reverse transcriptase (Human immunodeficiency virus 1, UniProt Q72547, K103N). Description: Inhibition of HIV1 reverse transcriptase K103N mutant assessed as 32P-labeled GMP incorporation into nascent DNA strand.
Series [7] deals with Human immunodeficiency virus 2. Kind of series: Antiviral activity against HIV2 assessed as inhibition of viral single round replication at early time point. The format is functional, organism-based.
A short description of series [8]: Cytotoxicity against human HeLa cells expressing CD4-LTR by XTT assay. It counts as cell-based. The note with it: read-out: TC50 (the source's name).
Series [9] concerns Human immunodeficiency virus 1. Kind of series: Antiviral activity against HIV1 infected in human HeLa cells expressing CD4-LTR assessed as inhibition of viral entry-related beta galactosidase expression treated for 2 hrs followed by drug wash out measured after 48 hrs by MAGI assay. It counts as functional, organism-based. The note with it: Human immunodeficiency virus 1, HeLa.

A short description of series [10]: Therapeutic index, ratio of TC50 for human CEM-SS cells to EC50 for HIV1 RF infected in human CEM-SS cells. It counts as cell-based. The settings on record: read-out: TI.
The nature of series [11]: Therapeutic index, ratio of TC50 for human CEM-SS cells to EC50 for HIV2 ROD infected in human CEM-SS cells. The format is cell-based. The note with it: for selectivity ratio: CEM-SS cells, read-out: TI.
Series [12] has as its system Human immunodeficiency virus 2. Kind of series: Inhibition of HIV2 reverse transcriptase.
Series [13] has as its system Human immunodeficiency virus 1. Description: Antiviral activity against HIV1 infected in human CEM-SS cells assessed as inhibition of viral replication and virus-induced cytopathic effect by dose-response curve analysis. The format is functional. The note with it: Human immunodeficiency virus 1, CEM-SS.
The subject of series [14] is Human immunodeficiency virus 2. Kind of series: Inhibition of HIV2 reverse transcriptase assessed as 32P-labeled GMP incorporation into nascent DNA strand at highest concentration.
Series [15] relates to Human immunodeficiency virus 1. Kind of series: Antiviral activity against HIV1 RF infected in human CEM-SS cells assessed as inhibition of virus-induced cytopathic effect by XTT assay. The format is functional, organism-based. The note with it: Human immunodeficiency virus 1, RF.

By pEC50 is commonly meant the negative decadic logarithm of the EC50, by convention in mol/L. The pIC50 is the negative decadic logarithm of the IC50, by convention in mol/L. The EC99 is the point of the concentration-response curve where the effect stands at 99%. Regarding `CCc1c(C(=O)c2cc(C)cc(C)c2)n(Cc2ccccc2)c(=O)[nH]c1=O`, the pEC50 in [1] is 6.40; in [9], 7.30; in [15], 7.80. Also, the pIC50 in series [2] was 7.60; in series [6] it was 5.64. Also, the result in series [3], in series [12] and in [14] was inactive. In addition, the CC50 in series [4] was found to be 24600 nM; in series [8] it was 562000 nM. Also, the selectivity ratio worked out at 10200 in series [5], 68300 in series [10] and 59.3 in series [11]. Moreover, the result in [7] was Active. Also, in series [13], the EC99 turned out to be 1 µM.
`Cc1cc(C)cc(Sc2c(C(C)C)c(=O)[nH]c(=O)n2CC2CCCCC2)c1`: the results for the pEC50 in [1], in series [9] and in series [15] were 5.26, 8.10 and 7.96, respectively. In addition, the pIC50 is 6.79 in series [2] and less than 3.59 in series [6]. The result in series [3], in series [12] and in series [14] was inactive. In addition, the CC50 came out at 13200 nM in [4] and 15200 nM in series [8]. Further, the selectivity ratio in series [5] was determined as 1890; in series [10] it was 1560; in series [11] it was 2.4. The result in series [7] was Active. Further, the EC99 in series [13] was 1 µM.
In the case of `Cc1cc(C)cc(Oc2c(C(C)C)c(=O)[nH]c(=O)n2CC2CCCCC2)c1`, the results for the pEC50 in series [1], in [9] and in series [15] were 5.80, 6.08 and 8.31, respectively. In addition, the results for the negative-log IC50 (pIC50) in series [2] and in series [6] were 6.84 and 4.93, respectively. Besides, the result in series [3], in series [12] and in [14] was inactive. The CC50 in series [4] was found to be 13200 nM; in series [8], 34400 nM. The selectivity ratio in series [5] worked out at 41; in series [10] it was 11400; in series [11], 8.4. Further, in [7], the result was Active. In addition, the EC99 in [13] amounted to 1 µM.
On to `Cc1cc(C)cc(Sc2c(C(C)C)c(=O)[nH]c(=O)n2CC2CC=CC2)c1`, for which the negative logarithm of the EC50 (pEC50) in series [1] was 4.82; in series [9], 7.10; in series [15], 5.91. In addition, the pIC50 is 6.62 in series [2] and less than 3.57 in [6]. For the same compound, the outcome in [3], in [12] and in series [14] was inactive. In addition, the CC50 in series [4] was 26500 nM; in series [8], 23200 nM. The selectivity ratio is 307 in [5], 22 in series [10] and greater than 1.3 in [11]. Moreover, in series [7], the outcome was Active. Moreover, the EC99 in series [13] turned out to be 1 µM.
With `Cc1cc(C)cc(Oc2c(C(C)C)c(=O)[nH]c(=O)n2CC2=CCCC2)c1`, the pEC50 in [1] was 6.30; in [9], 6.74; in series [15], 9.00. Further, the pIC50 in series [2] is 7.49; in series [6], 5.66. For the same compound, the outcome in [3], in series [12] and in series [14] was inactive. Further, the CC50 in series [4] was determined as 16400 nM; in [8] it was 20500 nM. Also, the selectivity ratio in [5] is 116; in series [10], 23500; in series [11], 32.2. Besides, in [7], the result was Active. For the same compound, the 99% effect concentration (EC99) in series [13] amounted to 1 µM.
For `CCc1c(Oc2cc(C)cc(C)c2)n(CC2CCCCC2)c(=O)[nH]c1=O`, the results for the negative-log EC50 (pEC50) in series [1], in series [9] and in [15] were 5.29, 6.64 and 7.55, respectively. For the same compound, the figures for the pIC50 in [2] and in series [6] were 6.88 and 5.72, respectively. Besides, the outcome in [3], in series [12] and in [14] was inactive. Also, the CC50 in series [4] worked out at 114000 nM; in series [8] it was 129000 nM. The selectivity ratio in series [5] came to 555; in [10], 5140; in series [11], 28.6. The result in series [7] was Active. Further, in [13], the EC99 stood at 1 µM.
With `CCc1c(Sc2ccccc2)n(CC2CC=CC2)c(=O)[nH]c1=O`, the EC50 result in series [1] (cem-ss) is “Not Active”. The negative-log IC50 (pIC50) in [2] is 6.44; in series [6], 4.77. Besides, the result in series [3], in [12] and in [14] was inactive. Moreover, the CC50 was found to be 20700 nM in [4] and 30300 nM in series [8]. Also, the figures for the selectivity ratio in series [5] and in series [10] were 1250 and 262, respectively. For the same compound, the outcome in [7] was Active. For the same compound, the negative logarithm of the EC50 (pEC50) in series [9] is 7.70; in [15] it was 6.82. In addition, the TI entry in series [11] (cem-ss) is on record as “Not Active”. The concentration for an effect of 99% (EC99) in series [13] stood at 1 µM.
Take `CCc1c(Sc2cc(C)cc(C)c2)n(CCC2=CCCC2)c(=O)[nH]c1=O`: the results for the pEC50 in series [1], in series [9] and in series [15] were 4.72, 7.52 and 6.57, respectively. The results for the pIC50 in series [2] and in series [6] were 5.67 and 4.74, respectively. The outcome in [3], in series [12] and in [14] was inactive. In addition, the CC50 in series [4] and in series [8] was 143000 nM throughout. Besides, the selectivity ratio in series [5] was 4400; in series [10], 528; in series [11], 7.4. Besides, the outcome in [7] was Active. Also, the EC99 in [13] was 1 µM.
Turning to `Cc1cc(C)cc(Sc2c(C(C)C)c(=O)[nH]c(=O)n2CCC2CC=CC2)c1`, the pEC50 in series [1] is 5.21; in series [9] it was 7.10; in [15], 8.70. Also, the pIC50 is 6.60 in series [2] and 3.83 in series [6]. The outcome in series [3], in series [12] and in series [14] was inactive. In addition, the CC50 turned out to be 12800 nM in series [4] and 14200 nM in [8]. Further, the figures for the selectivity ratio in [5], in [10] and in series [11] were 173, 6530 and 2.5, respectively. In addition, the outcome in [7] was Active. In [13], the concentration for an effect of 99% (EC99) is 1 µM.
Regarding `Cc1cc(C)cc(Oc2c(C(C)C)c(=O)[nH]c(=O)n2CCC2CC=CC2)c1`, the pEC50 was 5.85 in series [1], 5.65 in [9] and 7.70 in series [15]. Besides, the values for the negative logarithm of the IC50 (pIC50) in [2] and in series [6] were 6.75 and 5.64, respectively. Further, the result in [3], in series [12] and in series [14] was inactive. The values for the CC50 in series [4] and in series [8] were 10300 nM and 14200 nM, respectively. The selectivity ratio in series [5] was 6; in series [10], 918; in series [11], 7.3. Also, the outcome in series [7] was Active. Besides, the EC99 in series [13] amounted to 1 µM.
Turning to `Cc1cc(C)cc(C(=O)c2c(C(C)C)c(=O)[nH]c(=O)n2CC2CCCC2)c1`, the results for the pEC50 in series [1], in [9] and in series [15] were 6.40, 7.10 and 8.46, respectively. Also, the negative-log IC50 (pIC50) in series [2] was 6.83; in series [6], 4.82. In addition, the result in [3], in series [12] and in [14] was inactive. In addition, the CC50 in series [4] came out at 15200 nM; in series [8] it was 16600 nM. Further, the selectivity ratio came out at 203 in series [5], 5080 in series [10] and 40 in series [11]. The outcome in [7] was Active. The concentration for an effect of 99% (EC99) in [13] stood at 1 µM.
Take `CCc1c(Oc2cc(C)cc(C)c2)n(CC2CCCC2)c(=O)[nH]c1=O`: the values for the pEC50 in series [1], in [9] and in series [15] were 5.54, 6.64 and 7.82, respectively. In addition, the negative logarithm of the IC50 (pIC50) in [2] was 6.86; in series [6], 6.57. Also, the result in series [3], in series [12] and in series [14] was inactive. The figures for the CC50 in series [4] and in [8] were 20200 nM and 20900 nM, respectively. Further, the selectivity ratio in series [5] amounted to 89; in [10], 1450; in series [11], 7. For the same compound, the result in series [7] was Active. Moreover, the EC99 in [13] stood at 1 µM.
